From ChEMBL document CHEMBL2401712, “Fused thiazolyl alkynes as potent mGlu5 receptor positive allosteric modulators” (Bioorg Med Chem Lett, 2013) come the findings set out here.

Bounds are passed on as bounds.

Format in all cases: cell-based
Experiment [1] deals with T1, Metabotropic glutamate receptor 5 (Homo sapiens, UniProt P41594). Description: Negative allosteric modulation of human mGlu5 receptor expressed in HEK293 cells assessed as inhibition of L-glutamate-induced activity after 1 hr by FLIPR assay relative to control. The conditions noted are these: concentration not given here. More on the design: concentration or dose not given beside the values.
Target sequence in this assay (P41594 21-1212 limits assumed): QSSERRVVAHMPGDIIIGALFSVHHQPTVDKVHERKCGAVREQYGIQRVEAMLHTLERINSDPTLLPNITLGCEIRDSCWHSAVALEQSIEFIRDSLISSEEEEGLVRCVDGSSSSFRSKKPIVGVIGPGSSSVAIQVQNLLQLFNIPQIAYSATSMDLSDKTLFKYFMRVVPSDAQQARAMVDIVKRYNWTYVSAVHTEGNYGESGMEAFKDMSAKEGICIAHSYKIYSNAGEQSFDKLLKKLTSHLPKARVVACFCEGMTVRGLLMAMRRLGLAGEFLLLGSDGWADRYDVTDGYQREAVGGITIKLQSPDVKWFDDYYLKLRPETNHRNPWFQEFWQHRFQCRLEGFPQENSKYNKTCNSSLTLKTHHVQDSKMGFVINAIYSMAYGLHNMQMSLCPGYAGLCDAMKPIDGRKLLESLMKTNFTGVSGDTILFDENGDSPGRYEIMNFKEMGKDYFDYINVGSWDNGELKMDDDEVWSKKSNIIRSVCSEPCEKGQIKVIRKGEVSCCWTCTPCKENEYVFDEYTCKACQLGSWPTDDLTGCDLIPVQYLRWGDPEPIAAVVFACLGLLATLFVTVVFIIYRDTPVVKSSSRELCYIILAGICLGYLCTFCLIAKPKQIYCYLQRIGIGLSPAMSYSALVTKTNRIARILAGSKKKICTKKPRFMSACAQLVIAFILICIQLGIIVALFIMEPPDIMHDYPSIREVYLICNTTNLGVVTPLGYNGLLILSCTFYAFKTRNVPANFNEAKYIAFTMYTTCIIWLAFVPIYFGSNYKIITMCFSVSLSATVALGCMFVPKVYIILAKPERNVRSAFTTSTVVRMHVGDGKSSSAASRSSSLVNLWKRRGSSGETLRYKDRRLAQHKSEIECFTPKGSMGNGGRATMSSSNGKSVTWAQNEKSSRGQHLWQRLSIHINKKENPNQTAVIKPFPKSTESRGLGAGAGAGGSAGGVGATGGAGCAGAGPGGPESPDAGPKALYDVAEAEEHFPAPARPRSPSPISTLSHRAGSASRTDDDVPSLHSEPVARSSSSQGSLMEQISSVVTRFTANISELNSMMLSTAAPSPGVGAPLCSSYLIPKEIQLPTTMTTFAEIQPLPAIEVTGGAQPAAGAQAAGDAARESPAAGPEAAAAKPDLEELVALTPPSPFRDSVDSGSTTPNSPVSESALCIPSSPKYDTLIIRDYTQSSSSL

The target in experiment [2] is T1, Metabotropic glutamate receptor 5. Description: Negative allosteric modulation of human mGlu5 receptor expressed in HEK293 cells assessed as inhibition of L-glutamate-induced activity after 1 hr by FLIPR assay.
Target sequence in this assay (P41594 whole entry): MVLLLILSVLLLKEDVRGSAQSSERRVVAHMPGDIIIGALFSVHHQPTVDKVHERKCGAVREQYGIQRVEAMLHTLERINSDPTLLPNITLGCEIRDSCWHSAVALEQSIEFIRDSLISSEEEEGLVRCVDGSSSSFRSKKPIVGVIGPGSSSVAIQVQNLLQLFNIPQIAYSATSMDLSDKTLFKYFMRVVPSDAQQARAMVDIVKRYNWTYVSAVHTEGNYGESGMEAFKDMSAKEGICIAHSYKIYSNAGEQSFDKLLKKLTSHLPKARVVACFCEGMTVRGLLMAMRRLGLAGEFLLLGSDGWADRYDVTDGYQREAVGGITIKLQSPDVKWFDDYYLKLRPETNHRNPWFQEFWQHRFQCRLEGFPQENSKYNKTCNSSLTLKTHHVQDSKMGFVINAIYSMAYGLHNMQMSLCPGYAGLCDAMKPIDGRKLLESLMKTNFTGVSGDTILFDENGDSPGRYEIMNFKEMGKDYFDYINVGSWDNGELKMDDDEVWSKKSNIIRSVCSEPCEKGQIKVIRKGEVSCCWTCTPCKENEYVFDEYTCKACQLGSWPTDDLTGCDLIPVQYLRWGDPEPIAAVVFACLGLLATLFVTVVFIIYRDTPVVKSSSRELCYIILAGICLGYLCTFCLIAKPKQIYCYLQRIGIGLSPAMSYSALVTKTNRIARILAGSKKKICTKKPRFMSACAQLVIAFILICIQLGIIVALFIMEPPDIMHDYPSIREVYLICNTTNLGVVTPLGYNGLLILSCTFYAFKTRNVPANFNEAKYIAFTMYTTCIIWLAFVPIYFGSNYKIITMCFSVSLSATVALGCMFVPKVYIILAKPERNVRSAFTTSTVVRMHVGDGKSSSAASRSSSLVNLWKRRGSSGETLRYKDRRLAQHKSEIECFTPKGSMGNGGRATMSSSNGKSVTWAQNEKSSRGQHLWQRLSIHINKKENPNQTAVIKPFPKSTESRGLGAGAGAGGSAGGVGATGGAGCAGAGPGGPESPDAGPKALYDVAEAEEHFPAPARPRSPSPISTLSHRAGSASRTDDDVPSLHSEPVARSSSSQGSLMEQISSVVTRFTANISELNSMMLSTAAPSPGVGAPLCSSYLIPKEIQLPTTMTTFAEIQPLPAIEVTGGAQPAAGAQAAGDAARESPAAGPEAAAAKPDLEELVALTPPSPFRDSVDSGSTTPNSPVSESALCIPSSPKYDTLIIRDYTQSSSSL
For experiment [3] the target is unchanged. The experiment can be described thus: Positive allosteric modulation of human mGlu5 receptor expressed in HEK293 cells assessed as potentiation of L-glutamate-induced activity after 1 hr by FLIPR assay relative to control.
Target sequence in this assay (P41594 21-1212 limits assumed): as the sequence (P41594 21-1212 limits assumed) above
Experiment [4] has the same target. Description: Positive allosteric modulation of human mGlu5 receptor expressed in HEK293 cells assessed as potentiation of L-glutamate-induced activity after 1 hr by FLIPR assay.
Target sequence in this assay (P41594 whole entry): as the sequence (P41594 whole entry) above

`CCC(=O)N1CCc2nc(C#Cc3ccccc3)sc2C1`: the inhibition (commonly the relative decrease from the control value, in per cent) in experiment [1] amounted to 79%. For the same compound, in experiment [2], the IC50 (usually the midpoint of a concentration-inhibition curve) was 0.038 µM. Besides, the Emax – broadly, the size of the effect at its maximum, as opposed to the concentration needed – in experiment [3] is -17%. In addition, in experiment [4], the concentration for a half-maximal effect (EC50) (commonly the concentration at which the effect is half-maximal) was above 10 µM.
With `O=C(C1CC(F)(F)C1)N1CCc2nc(C#Cc3cccc(F)c3)sc2C1`, the inhibition in experiment [1] is 45%. Further, the half-inhibitory concentration (IC50) in experiment [2] was above 10 µM. The Emax in experiment [3] turned out to be 72%. Further, the EC50 in experiment [4] was 0.0025 µM.
`CCN1CCc2nc(C#Cc3ccccc3)sc2C1`: in experiment [1], the inhibition worked out at 51%. In experiment [2], the IC50 worked out at 1.2 µM. For the same compound, the Emax in experiment [3] is -6%. In addition, in experiment [4], the EC50 was above 10 µM.
Taken in the same sequence, the figures for `CN(C)S(=O)(=O)N1CCc2nc(C#Cc3ccccc3)sc2C1` were 71%, 0.0057 µM, -6% and above 10 µM.
Take `COC1CC(C(=O)N2CCc3nc(C#Cc4ccccc4)sc3C2)C1` (stereo unspecified): in experiment [1], the inhibition is -0.2%. Further, in experiment [2], the IC50 was above 10 µM. Further, the Emax in experiment [3] stood at 43%. Moreover, in experiment [4], the 50% effective concentration (EC50) turned out to be 0.64 µM.
Taken in the same sequence, the figures for `O=C(N1CCC(F)CC1)N1CCc2nc(C#Cc3ccccc3)sc2C1` were 15%, above 10 µM, 100% and 0.074 µM.
For `Cc1nc(C(=O)N2CCc3nc(C#Cc4ccccc4)sc3C2)cs1`, in that order: 3.7%, above 10 µM, 110% and 0.22 µM.
Taken in the same sequence, the figures for `O=C(C1CCCO1)N1CCc2nc(C#Cc3ccccc3)sc2C1` (stereo unspecified) were -1%, above 10 µM, 89% and 0.79 µM.
For the compound `O=S(=O)(N1CCCCC1)N1Cc2nc(C#Cc3ccccc3)sc2C1`, the half-inhibitory concentration (IC50) in experiment [2] is above 10 µM. Besides, the Emax in experiment [3] worked out at 89%. For the same compound, the EC50 in experiment [4] worked out at 0.25 µM.
For the compound `CC1CCCC(C(=O)N2CCc3nc(C#Cc4ccccc4)sc3C2)C1` (stereo unspecified), the inhibition in experiment [1] was 20%. In addition, the half-inhibitory concentration (IC50) in experiment [2] was above 10 µM. In addition, the Emax in experiment [3] was found to be 260%. In experiment [4], the half-maximal effective concentration (EC50) is 0.1 µM.
As to `O=C1NCCc2nc(C#Cc3ccccc3F)sc21`, the IC50 in experiment [2] was above 10 µM. In experiment [3], the Emax worked out at 320%. Moreover, in experiment [4], the EC50 worked out at 1.5 µM.
For `O=C(C1CCCCC1)N1CCc2nc(C#Cc3ccccc3)sc2C1`, in that order: above 10 µM, 153% and 0.167 µM.
For `CC(=O)N1CCc2nc(C#Cc3ccccc3)sc2C1`, the inhibition in experiment [1] was determined as 79%. Moreover, in experiment [2], the half-maximal inhibitory concentration (IC50) worked out at 0.09 µM. The Emax in experiment [3] was -18%. Moreover, the EC50 in experiment [4] is above 10 µM.
For `O=C(C1CC1)N1CCc2nc(C#Cc3ccccc3)sc2C1`, in that order: 61%, 0.29 µM, -13% and above 10 µM.
For `CC(C)S(=O)(=O)N1Cc2nc(C#Cc3ccccc3)sc2C1`, in that order: 74%, 0.14 µM, -35% and above 10 µM.
For `O=C(C1CCCCO1)N1CCc2nc(C#Cc3ccccc3)sc2C1` (stereo unspecified), in that order: 35%, above 10 µM, 100% and 0.32 µM.
Consider `O=C(C1CC(F)(F)C1)N1CCc2nc(C#Cc3ccc(F)cc3)sc2C1`, for which the inhibition in experiment [1] came to 13%. In addition, the 50% inhibitory concentration (IC50) in experiment [2] is above 10 µM. Also, the Emax in experiment [3] is 73%. Further, the EC50 in experiment [4] was 0.15 µM.
Taken in the same sequence, the figures for `CCN1CCc2nc(C#Cc3cccc(F)c3)sc2C1` were 87%, 0.072 µM, -2% and above 10 µM.
With `O=S(=O)(C1CCCCC1)N1Cc2nc(C#Cc3ccccc3)sc2C1`, the IC50 in experiment [2] was above 10 µM. Moreover, the Emax in experiment [3] is 110%. Besides, the concentration for a half-maximal effect (EC50) in experiment [4] turned out to be 0.15 µM.
As to `O=S(=O)(N1CCCCC1)N1CCc2nc(C#Cc3ccccc3)sc2C1`, the inhibition in experiment [1] was 86%. In experiment [2], the 50% inhibitory concentration (IC50) came out at 0.78 µM. Besides, the Emax in experiment [3] was found to be 6%. In experiment [4], the 50% effective concentration (EC50) was above 10 µM.
For `O=C(C1CCC(F)(F)CC1)N1CCc2nc(C#Cc3ccccc3)sc2C1`, in that order: 10%, above 10 µM, 190% and 0.07 µM.
Taken in the same sequence, the figures for `O=C(CC1CCOCC1)N1CCc2nc(C#Cc3ccccc3)sc2C1` were -2%, above 10 µM, 45% and 0.47 µM.
Take `O=C(c1cccc(F)c1)N1CCc2nc(C#Cc3ccccc3)sc2C1`: in experiment [2], the IC50 is above 10 µM. The Emax in experiment [3] turned out to be 160%. Moreover, the half-maximal effective concentration (EC50) in experiment [4] is 0.03 µM.
For `CC(C)CN1CCc2nc(C#Cc3ccccc3)sc2C1`, the inhibition in experiment [1] turned out to be 94%. Moreover, the IC50 in experiment [2] was 0.65 µM. Further, the Emax in experiment [3] is -48%. The EC50 in experiment [4] is above 10 µM.
For `O=C(C1CC12CCC2)N1CCc2nc(C#Cc3ccccc3)sc2C1` (stereo unspecified), in experiment [1], the inhibition amounted to 10%. For the same compound, the 50% inhibitory concentration (IC50) in experiment [2] was above 10 µM. Moreover, the Emax in experiment [3] was determined as 95%. The EC50 in experiment [4] came out at 0.0039 µM.
Consider `O=C1NCCc2nc(C#Cc3ccc(F)cc3)sc21`, for which the 50% inhibitory concentration (IC50) in experiment [2] was above 10 µM. Besides, in experiment [3], the Emax came out at 310%. Moreover, the EC50 in experiment [4] came out at 5.2 µM.
Taken in the same sequence, the figures for `O=C1NCCc2nc(C#Cc3cccc(F)c3)sc21` were above 10 µM, 310% and 0.29 µM.
For `Cc1cccc(C(=O)N2CCc3nc(C#Cc4ccccc4)sc3C2)c1`, in that order: above 10 µM, 170% and 0.099 µM.
As for `O=S(=O)(C1CC1)N1CCc2nc(C#Cc3ccccc3)sc2C1`, the inhibition in experiment [1] worked out at 87%. In addition, the half-maximal inhibitory concentration (IC50) in experiment [2] was found to be 0.034 µM. In addition, in experiment [3], the Emax is -12%. In addition, the 50% effective concentration (EC50) in experiment [4] was above 10 µM.
`CC1CC(C(=O)N2CCc3nc(C#Cc4cccc(F)c4)sc3C2)C1` (stereo unspecified): in experiment [1], the inhibition amounted to 19%. The 50% inhibitory concentration (IC50) in experiment [2] is above 10 µM. The Emax in experiment [3] was 87%. Further, the EC50 in experiment [4] is 0.017 µM.
With `CC1CC(C(=O)N2CCc3nc(C#Cc4ccccc4)sc3C2)C1` (stereo unspecified), the inhibition in experiment [1] stood at 13%. The IC50 in experiment [2] was above 10 µM. In addition, the Emax in experiment [3] was determined as 120%. Also, in experiment [4], the concentration giving a half-maximal response (EC50) is 0.081 µM.
For `CCCCN1CCc2nc(C#Cc3ccccc3)sc2C1`, in experiment [1], the inhibition worked out at 28%. Also, the IC50 in experiment [2] is above 10 µM. In addition, the Emax in experiment [3] was determined as 32%. Besides, the concentration giving a half-maximal response (EC50) in experiment [4] turned out to be 0.11 µM.
For `O=S(=O)(C1CCCCC1)N1CCc2nc(C#Cc3ccccc3)sc2C1`, in that order: 81%, 0.48 µM, -17% and above 10 µM.
Regarding `O=C1NCCc2nc(C#Cc3cccc(Cl)c3)sc21`, the 50% inhibitory concentration (IC50) in experiment [2] was above 10 µM. The Emax in experiment [3] came to 120%. In experiment [4], the half-maximal effective concentration (EC50) is 2.5 µM.
Take `O=S(=O)(N1CCCC1)N1CCc2nc(C#Cc3ccccc3)sc2C1`: the inhibition in experiment [1] came out at 78%. Further, the IC50 in experiment [2] worked out at 0.036 µM. Moreover, the Emax in experiment [3] was -9%. The 50% effective concentration (EC50) in experiment [4] is above 10 µM.
Taken in the same sequence, the figures for `O=S(=O)(N1CCOCC1)N1CCc2nc(C#Cc3ccccc3)sc2C1` were 89%, 0.013 µM, 1.5% and above 10 µM.
For `CC1CC1C(=O)N1CCc2nc(C#Cc3ccccc3)sc2C1` (stereo unspecified), in that order: 6.3%, above 10 µM, 42% and 0.0094 µM.
For `CC(C)S(=O)(=O)N1CCc2nc(C#Cc3ccccc3)sc2C1`, in that order: 75%, 0.011 µM, -4% and above 10 µM.
As to `Fc1cccc(C#Cc2nc3c(s2)CN(C2CCOC2)CC3)c1` (stereo unspecified), the inhibition in experiment [1] was 91%. Further, in experiment [2], the IC50 came to 0.4 µM. For the same compound, the Emax in experiment [3] was -47%. For the same compound, the concentration for a half-maximal effect (EC50) in experiment [4] was above 10 µM.
As to `O=C1NCCc2nc(C#Cc3cccnc3)sc21`, in experiment [2], the IC50 was above 10 µM. Besides, the Emax in experiment [3] was 120%. Also, in experiment [4], the EC50 stood at 0.051 µM.
Take `CN1CCc2nc(C#Cc3cccc(F)c3)sc2C1`: the inhibition in experiment [1] stood at 6%. In addition, in experiment [2], the IC50 is above 10 µM. Also, in experiment [3], the Emax was -8%. Also, the EC50 in experiment [4] is above 10 µM.
For `CN1CCC(C(=O)N2CCc3nc(C#Cc4ccccc4)sc3C2)CC1`, the IC50 in experiment [2] is above 10 µM. Besides, in experiment [3], the Emax amounted to 70%. Moreover, in experiment [4], the concentration for a half-maximal effect (EC50) turned out to be 1.2 µM.
For `O=C(N1CCCCC1)N1CCc2nc(C#Cc3ccccc3)sc2C1`, in experiment [2], the 50% inhibitory concentration (IC50) is above 10 µM. For the same compound, the Emax in experiment [3] came out at 120%. Moreover, the EC50 in experiment [4] was 0.075 µM.
For `O=C1c2sc(C#Cc3ccccc3)nc2CN1C1CCCC1`, in that order: above 10 µM, 150% and 0.0025 µM.
Regarding `CC(C)CCN1CCc2nc(C#Cc3ccccc3)sc2C1`, the IC50 in experiment [2] was above 10 µM. Moreover, the Emax in experiment [3] was found to be 180%. Further, in experiment [4], the 50% effective concentration (EC50) turned out to be 0.1 µM.
Taken in the same sequence, the figures for `Cc1cc(C(=O)N2CCc3nc(C#Cc4ccccc4)sc3C2)no1` were above 10 µM, 71% and 1.6 µM.
For `O=C(C1CCOCC1)N1CCc2nc(C#Cc3ccccc3)sc2C1`, in that order: above 10 µM, 120% and 0.29 µM.
For `Cc1cccc(C#Cc2nc3c(s2)C(=O)NCC3)c1`, in that order: above 10 µM, 50% and above 10 µM.
In the case of `COc1ccccc1C#Cc1nc2c(s1)C(=O)NCC2`, the half-maximal inhibitory concentration (IC50) in experiment [2] is above 10 µM. In addition, the Emax in experiment [3] turned out to be 44%. In addition, the EC50 in experiment [4] is above 10 µM.
With `O=C1NCCc2nc(C#Cc3ccccc3)sc21`, the half-maximal inhibitory concentration (IC50) in experiment [2] was above 10 µM. Besides, in experiment [3], the Emax was 243%. In experiment [4], the EC50 is 0.112 µM.
